Experimental data as given in US4405634A, “Imidazole derivatives for treating myocardial infarction” (Burroughs Wellcome Co., priority 1977, dated 1983).

Key:
TXA2 synthetase = biological target: T1, TXA2 synthetase (Equus caballus, UniProt A0A9L0T8T9); assay: thromboxane production from labelled arachidonic acid by homogenised horse platelets (concentration to reduce the enzyme activity by 50%); format: biochemical; conditions: horse platelet homogenate, pH 7.4, 5 min preincubation, 3 min at 37° C. with arachidonic acid, read-out: ED50 (the source's name) (converted)
T1 construct: arachidonic acid substrate, thromboxane B2 measured by radio-TLC
T1 sequence (A0A9L0T8T9 2-534): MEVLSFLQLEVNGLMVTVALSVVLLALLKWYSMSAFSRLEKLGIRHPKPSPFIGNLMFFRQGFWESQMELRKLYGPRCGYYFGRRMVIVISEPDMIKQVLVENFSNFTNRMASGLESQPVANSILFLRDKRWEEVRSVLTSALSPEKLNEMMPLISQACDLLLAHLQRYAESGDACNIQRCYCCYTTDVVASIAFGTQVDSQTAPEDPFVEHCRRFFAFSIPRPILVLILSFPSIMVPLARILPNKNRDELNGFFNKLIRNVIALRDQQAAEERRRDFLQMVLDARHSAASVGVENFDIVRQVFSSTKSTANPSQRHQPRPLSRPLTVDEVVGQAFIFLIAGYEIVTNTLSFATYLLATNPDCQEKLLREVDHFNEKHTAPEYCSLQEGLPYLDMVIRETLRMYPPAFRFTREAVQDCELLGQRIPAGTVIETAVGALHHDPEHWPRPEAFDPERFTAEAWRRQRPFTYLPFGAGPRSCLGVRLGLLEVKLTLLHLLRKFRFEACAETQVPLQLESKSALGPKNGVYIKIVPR
T1 sequence (F7BQR7 24-599 partner): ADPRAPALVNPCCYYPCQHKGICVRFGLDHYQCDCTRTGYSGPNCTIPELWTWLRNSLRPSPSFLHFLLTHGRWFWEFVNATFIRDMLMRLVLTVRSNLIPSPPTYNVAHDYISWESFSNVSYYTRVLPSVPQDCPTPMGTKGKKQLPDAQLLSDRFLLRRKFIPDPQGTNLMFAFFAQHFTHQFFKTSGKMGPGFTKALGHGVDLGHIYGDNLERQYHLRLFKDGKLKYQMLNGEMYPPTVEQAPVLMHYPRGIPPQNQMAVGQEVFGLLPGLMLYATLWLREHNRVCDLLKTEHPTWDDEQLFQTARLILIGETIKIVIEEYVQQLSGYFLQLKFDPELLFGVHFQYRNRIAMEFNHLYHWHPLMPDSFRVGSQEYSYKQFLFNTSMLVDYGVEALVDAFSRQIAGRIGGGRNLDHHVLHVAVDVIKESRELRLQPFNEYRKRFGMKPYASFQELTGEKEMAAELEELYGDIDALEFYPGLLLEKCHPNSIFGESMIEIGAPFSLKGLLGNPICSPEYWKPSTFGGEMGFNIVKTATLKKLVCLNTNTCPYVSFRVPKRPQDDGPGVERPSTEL
Protocol: (§1) Horse platelets were prepared from whole horse blood by differential centrifugation. Approximately 10^6 platelets were homogenised in 1 ml 100 mM Tris buffer pH 7.4. Various concentrations of active compound were added and the reaction sets incubated for 5 minutes at ambient temperature. To each tube was added 20 nM of arachidonic acid containing 10^6 DPM of labelled arachidonic acid and the tubes incubated for 3 minutes at 37° C. in a shaking water bath. After incubation the radioactive products were extracted from the acidified aqueous phase with ethyl acetate and after concentration resolved by thin layer chromotography on silica gel with chloroform/methanol/acetic acid/water (90:8:1:0.8) as a developing solvent. The amount of thromboxane produced was measured by scraping the radioactive zone corresponding to thromboxane B2 and estimating the radioactivity in a liquid scintillation counter.
The concentration of active compound to reduce the enzyme activity by 50% (ED50) was established.

[1] = system: PGE, PGF and PGD (anti-aggregatory-prostaglandin generating enzymes); assay: selectivity: amount of PGE, PGF and PGD produced by homogenised horse platelets; format: biochemical; parameters: key: O indicates no selectivity; + low selectivity; ++ medium selectivity; conditions: the greater the selectivity, the more anti-aggregating prostaglandins are produced
Protocol: as §1
The selectivity of the active compounds was measured in a similar manner to that described above and the amount of PGE, PGF and PGD produced was determined. The greater the selectivity, the more of the anti-aggregating prostaglandins are produced.
The ED50 and Selectivity results are shown in Table A in which O indicates no selectivity; + low selectivity and ++ medium selectivity.

platelet aggregation = assay: inhibition of platelet aggregation in vivo
platelet clumps = assay: disaggregation of platelet clumps
[2] = system: enzymic conversion of the endoperoxides (PGG2 and PGH2) to thromboxane A2; conditions: platelet microsomes; Moncada et al., Prostaglandins, 13/4, 611-618, 1977; cited from earlier work
serum cholesterol = conditions: U.K. Pat. No. 1 364 312; Biochem. Pharmacol. 24, 1902-1903, 1975; cited from earlier work

For `Cc1cc(C)c(Cn2ccnc2)c(C)c1` [1-(2,4,6-Trimethylbenzyl)imidazole, 1-(2,4,6-trimethylbenzyl)imidazole], the IC50 (TXA2 synthetase) was 17 µM and the Selectivity [1] was “++”.

With `Cc1ccc(Cn2ccnc2)cc1C` [1-(3,4-Dimethylbenzyl)imidazole, 1-(3,4-dimethylbenzyl)imidazole] the IC50 (TXA2 synthetase) was 32.2 µM, the Selectivity [1] was “++” and the “inhibiting platelet aggregation in vivo” value (platelet aggregation) was “capable of inhibiting platelet aggregation in vivo”. The disaggregating platelet clumps (platelet clumps) was “capable of disaggregating platelet clumps”.

In the case of `Clc1ccc(C=CCn2ccnc2)c(Cl)c1` [1-[3-(2,4-dichlorophenyl)prop-2-enyl]imidazole], the IC50 (TXA2 synthetase) is reported as 16.2 µM and the Selectivity [1] is reported as “+”.

In the case of `Clc1cccc(Cl)c1C=CCn1ccnc1` [1-[3-(2,6-dichlorophenyl)prop-2-enyl]imidazole], the IC50 (TXA2 synthetase) is reported as 3.95 µM and the Selectivity [1] is reported as “+”.

In the case of `Cn1ccnc1` [1-methylimidazole], the “inhibition of the enzymic conversion of PGG2 and PGH2 to thromboxane A2” value [2] is listed as “some degree of inhibition”.

For `CCCCCCCCCCCCn1ccnc1` [1-n-dodecylimidazole], the “lowering serum cholesterol levels” value (serum cholesterol) is given as “capable of lowering serum cholesterol levels”.

For `c1c[nH]cn1` [Imidazole], the “inhibition of the enzymic conversion of PGG2 and PGH2 to thromboxane A2” value [2] is given as “some degree of inhibition”.
